Measurements taken from patent US20180177766A1, “THERAPEUTIC AGENT FOR NEUROTROPHIC KERATOPATHY” (SENJU PHARMACEUTICAL CO., LTD., priority 2015, published 2018).

Assays:
PPARδ = molecular target: T1, PPARδ (Homo sapiens, UniProt Q03181); conditions: method described in Example 12 of WO 2003/033493; cited from earlier work
T1 sequence (Q03181 1-441): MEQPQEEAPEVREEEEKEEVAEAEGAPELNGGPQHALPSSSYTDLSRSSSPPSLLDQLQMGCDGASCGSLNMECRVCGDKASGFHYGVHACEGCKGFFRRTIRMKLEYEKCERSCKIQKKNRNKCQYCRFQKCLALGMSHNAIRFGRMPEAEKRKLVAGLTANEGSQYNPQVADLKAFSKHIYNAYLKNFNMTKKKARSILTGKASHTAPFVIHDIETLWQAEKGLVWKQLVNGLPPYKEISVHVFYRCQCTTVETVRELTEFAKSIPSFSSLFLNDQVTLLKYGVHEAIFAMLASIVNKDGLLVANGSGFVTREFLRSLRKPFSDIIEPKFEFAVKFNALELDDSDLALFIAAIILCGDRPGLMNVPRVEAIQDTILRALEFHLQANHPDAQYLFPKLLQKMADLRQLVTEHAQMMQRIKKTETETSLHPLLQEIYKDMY

[1] = tested on: corneal epithelial disorder in GK rats; assay: Corneal epithelial disorder in spontaneously diabetic Goto-Kakizaki (GK) rat, fluorescein staining score; type: in vivo
Experimental: Male GK rats (20 rats) (Wakuta M., et al., Invest. Ophthalmol. Vis. Sci. 2007 48 590-596) purchased from CLEA Japan, Inc. were used. Corneal epithelial disorders associated with neuropathy were found in GK rats (Wang F., et al., Am J Pathol. 2012 181 2058-2066). GK rats are originated from Wistar rats and therefore, Wistar rats were used as normal control group (7 rats). The animals were bred in a breeding room set to room temperature 23° C.±3° C., humidity 55%±10% RH, 12 hr lighting (08:00 lighting, 20:00 lights-out) from the arrival to the test end date. The animals were allowed to freely ingest a solid feed (Labo MR Stock, Nosan Corporation) and freely ingest tap water, passed through a sterilizer for animal drink, from an automatic-water supply apparatus. The test was performed on an approval from the animal care and use committee based on the Act on Welfare and Management of Animals (Act No. 105 of Oct. 1, 1973, final revision: Act No. 38 of Jun. 12, 2013) and the like.
As a test substance, compound A was used. Compound A was dissolved in the vehicle (Table 2) to 0.005% and used as an ophthalmic solution. As a control group, a vehicle ophthalmic solution made solely of a vehicle (Table 2) and free of compound A was used.
GK rats were assigned to three groups of compound A ophthalmic solution administration group (4 rats) and non-administration group and vehicle ophthalmic solution administration group (8 for each group) using a statistical analysis software (SAS clinical package ver. 5.0, SAS Institute Japan), such that mean blood glucose concentration and mean corneal epithelial disorder score measured before instillation administration were uniform.
Compound A ophthalmic solution or vehicle ophthalmic solution was administered by instillation for 14 days. Instillation administration was performed 4 times per day at 10 μL/administration to both eyes with a micropipette. The administration was not performed on the non-administration group and Wistar rats.
0.1% Sodium fluoresceinate (Wako Pure Chemical Industries, Ltd.) (5 μL) was administered by instillation and fluorescein staining of the corneal epithelium was observed using a slit lamp, whereby the degree of corneal epithelial disorder was determined. To show the degree of abnormal findings in detail, one item was added to the diagnostic criteria of the McDonald-Shadduck method and used as the diagnostic criteria of the test (Table 3). The corneal epithelial disorder was scored for each of the three (upper, middle and lower) regions and the scores of the 3 regions were added up together. The corneal epithelial disorder was observed 2, 4, 6, 8, 11 and 15 days after the instillation administration.

[2] = tested on: corneal sensitivity of rabbit cornea after corneal flap production; assay: Decrease of corneal sensitivity after corneal flap production in rabbit (Cochet-Bonnet corneal esthesiometer); type: in vivo, Japanese white rabbit; conditions: 0.005% ophthalmic solution, 50 μL instillation 4 times per day for 17 days, compared with vehicle ophthalmic solution, FIG. 2 and FIG. 3
Experimental: Male Japanese white rabbits (body weight 2.80-3.32 kg) purchased from KITAYAMA LABES Co., Ltd. were used. The animals were bred in a breeding room set to room temperature 23° C.±3° C., humidity 55%±10% RH, 12 hr lighting (08:00 lighting, 20:00 lights-out) from the arrival to the test end date. A solid feed (Labo R Stock, Nosan Corporation, 100-120 g/day) was given to the animals, and the animals were allowed to freely ingest tap water, passed through a sterilizer for animal drink, from an automatic-water supply apparatus. The test was performed on an approval from the animal care and use committee based on the Act on Welfare and Management of Animals (Act No. 105 of Oct. 1, 1973, final revision: Act No. 38 of Jun. 12, 2013) and the like.
As a test substance, [3-[2-[4-isopropyl-2-(4-trifluoromethyl)phenyl-5-thiazolyl]ethyl]-5-methyl-1,2-benzisoxazol-6-yl]oxyacetic acid (hereinafter to be referred to as compound A) was used. […]
Before production of corneal flap, the anterior ocular segment of the rabbits was macroscopically observed, and the rabbits showing no abnormality were selected. Then, using Cochet-Bonnet corneal esthesiometer (manufactured by LUNEAU), the corneal sensitivity at measurement locations 1 and 2 in FIG. 1 was measured, and the rabbits showing a corneal sensitivity threshold of not less than 15 mm at both measurement locations 1 and 2 were selected. […]

Cc1cc2c(CCc3sc(-c4ccc(C(F)(F)F)cc4)nc3C(C)C)noc2cc1OCC(=O)O [compound A, [3-[2-[4-isopropyl-2-(4-trifluoromethyl)phenyl-5-thiazolyl]ethyl]-5-methyl-1,2-benzisoxazol-6-yl]oxyacetic acid]
PPARδ agonist activity (PPARδ): confirmed to have a PPARδ agonist activity
corneal epithelial disorder, result in words ([1]; 0.005% ophthalmic solution for 14 days, compared with non-administration and vehicle groups): improved
corneal epithelial disorder score (sum of 3 regions) ([1]; 8 days after administration, 0.005% ophthalmic solution, 10 μL 4 times per day, both eyes): 4.06 ± 0.20
corneal epithelial disorder score (sum of 3 regions) ([1]; 11 days after administration, 0.005% ophthalmic solution, 10 μL 4 times per day, both eyes): 4.00 ± 0.13
corneal epithelial disorder score (sum of 3 regions) ([1]; 15 days after administration, 0.005% ophthalmic solution, 10 μL 4 times per day, both eyes): 4.00 ± 0.13
corneal epithelial disorder score (sum of 3 regions) ([1]; before administration (baseline), mean ± spread): 4.63 ± 0.33
recovery of corneal sensitivity at measurement locations 1 and 2 after corneal flap production [2]: recovered faster
